Experimental data from ChEMBL document CHEMBL1201862, “PubChem BioAssay data set” (2004).
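All cell lines were grown in 96-well plates and treated with compound for 48 hours. GI50: concentration for 50% inhibition of growth.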 Activity calls are given as the source filed them. Cut-off read from the data, not from the text of the source: active = GI50 up to about 1.1 µM and inactive = higher.

Key:
Experiment in all cases: DTP human tumour cell line panel, 48 h
[1] = tested on: MOLT-4
[2] = tested on: HL-60
[3] = tested on: NCI-H522
[4] = tested on: COLO 205
[5] = tested on: 786-0
[6] = tested on: HCT-116
[7] = tested on: OVCAR-4
[8] = tested on: HOP-92
[9] = tested on: A498
[10] = tested on: KM-20L2
[11] = tested on: CAKI-1
[12] = tested on: SF-295
[13] = tested on: M19-MEL
[14] = tested on: Malme-3M
[15] = tested on: HT-29
[16] = tested on: UACC-257
[17] = tested on: IGROV-1

SMILES | GI50 [1] | GI50 [2] | GI50 [3] | GI50 [4] | GI50 [5] | GI50 [6] | GI50 [7] | GI50 [8] | GI50 [9] | GI50 [10] | GI50 [11] | GI50 [12] | GI50 [13] | GI50 [14] | GI50 [15] | GI50 [16] | GI50 [17]
O=C(COC(=O)c1cccc2c(=O)c3ccccc3[nH]c12)Nc1ccc(C(=O)O)cc1 | 37.8 µM (inactive) | 94 µM (inactive) | 43.7 µM (inactive) | > 100 µM (inactive) | > 100 µM (inactive) | 84.7 µM (inactive) | > 100 µM (inactive) | > 100 µM (inactive) | > 100 µM (inactive) | > 100 µM (inactive) | > 100 µM (inactive) | > 100 µM (inactive) | > 100 µM (inactive) | > 100 µM (inactive) | > 100 µM (inactive) | > 100 µM (inactive) | 99.1 µM (inactive)
N#Cc1c2c(c(N=P(c3ccccc3)(c3ccccc3)c3ccccc3)n3c1nc1ccccc13)CCCC2 | 19.6 µM (inactive) | 3.86 µM (inactive) | 14.3 µM (inactive) | 11.5 µM (inactive) | 44 µM (inactive) | 17.6 µM (inactive) | 23.4 µM (inactive) |  | 20.2 µM (inactive) | 17.4 µM (inactive) | 30 µM (inactive) | 12.8 µM (inactive) | 18 µM (inactive) | 36 µM (inactive) | 14.7 µM (inactive) | 15.5 µM (inactive) | 29.2 µM (inactive)
COC(=O)N/N=C(\Cc1ccccc1)CN(C)C | > 100 µM (inactive) | > 100 µM (inactive) | > 100 µM (inactive) | > 100 µM (inactive) | > 100 µM (inactive) | > 100 µM (inactive) |  | > 100 µM (inactive) | > 100 µM (inactive) | > 100 µM (inactive) |  | > 100 µM (inactive) | > 100 µM (inactive) | > 100 µM (inactive) | > 100 µM (inactive) | > 100 µM (inactive) | > 100 µM (inactive)
CCN(CC)CCNC(=O)c1nn(C)c(=S)[nH]c1=S | > 100 µM (inactive) | > 100 µM (inactive) | > 100 µM (inactive) | > 100 µM (inactive) | > 100 µM (inactive) | > 100 µM (inactive) | > 100 µM (inactive) | > 100 µM (inactive) |  | > 100 µM (inactive) | > 100 µM (inactive) | > 100 µM (inactive) | > 100 µM (inactive) | > 100 µM (inactive) | > 100 µM (inactive) | > 100 µM (inactive) | > 100 µM (inactive)
CC[n+]1c(/C=C/c2ccc(N(CCCl)CCCl)cc2)ccc2cc(I)ccc21 | 0.723 µM (active) | 0.217 µM (active) | 0.312 µM (active) | 0.191 µM (active) | 1.24 µM (inactive) | 0.318 µM (active) | 0.608 µM (active) | 0.379 µM (active) | 2.51 µM (inactive) | 1.02 µM (active) | 2 µM (inactive) | 2.04 µM (inactive) | 0.608 µM (active) | 0.6 µM (active) | 1.84 µM (inactive) | 0.514 µM (active) | 0.587 µM (active)
O=C1C2=C(C(c3ccccc3)=C1c1ccccc1)c1ccccc1C1(c3ccccc3)C2=C(O)C(c2ccccc2)=C1c1ccccc1 (configuration not stated) | > 100 µM (inactive) | > 100 µM (inactive) | > 100 µM (inactive) | > 100 µM (inactive) | > 100 µM (inactive) | > 100 µM (inactive) | > 100 µM (inactive) | > 100 µM (inactive) | > 100 µM (inactive) | > 100 µM (inactive) | > 100 µM (inactive) | > 100 µM (inactive) | > 100 µM (inactive) | > 100 µM (inactive) | > 100 µM (inactive) | > 100 µM (inactive) | > 100 µM (inactive)
NCc1cc(O)c(O)c(O)c1 | > 100 µM (inactive) | 80.7 µM (inactive) | > 100 µM (inactive) | > 100 µM (inactive) | > 100 µM (inactive) | 63.5 µM (inactive) | > 100 µM (inactive) | > 100 µM (inactive) | > 100 µM (inactive) | > 100 µM (inactive) | > 100 µM (inactive) | > 100 µM (inactive) | 80.4 µM (inactive) | > 100 µM (inactive) | > 100 µM (inactive) | > 100 µM (inactive) | > 100 µM (inactive)
CC(C)(C)CC(C)(C)c1cc2c(O)c(c1)Cc1cc(C(C)(C)CC(C)(C)C)cc(c1O)Cc1cc(C(C)(C)CC(C)(C)C)cc(c1O)Cc1cc(C(C)(C)CC(C)(C)C)cc(c1O)Cc1cc(C(C)(C)CC(C)(C)C)cc(c1O)Cc1cc(C(C)(C)CC(C)(C)C)cc(c1O)C2 | > 100 µM (inactive) | > 100 µM (inactive) | > 100 µM (inactive) | > 100 µM (inactive) | > 100 µM (inactive) | > 100 µM (inactive) | > 100 µM (inactive) | > 100 µM (inactive) |  | > 100 µM (inactive) |  | > 100 µM (inactive) | > 100 µM (inactive) | > 100 µM (inactive) | > 100 µM (inactive) | > 100 µM (inactive) | > 100 µM (inactive)
CCSC1=C(C)N(/C=N/C(C)(C)C)CC1 | > 100 µM (inactive) | > 100 µM (inactive) | > 100 µM (inactive) | > 100 µM (inactive) | > 100 µM (inactive) | > 100 µM (inactive) | > 100 µM (inactive) | > 100 µM (inactive) | > 100 µM (inactive) | > 100 µM (inactive) | > 100 µM (inactive) | > 100 µM (inactive) | > 100 µM (inactive) | > 100 µM (inactive) | > 100 µM (inactive) | > 100 µM (inactive) | > 100 µM (inactive)
